Values after ≈ are worked out from the molar mass of the structure shown.
Assays:
[1] = tested on: BGC-823; assay: Cytotoxicity against human BGC823 cells after 72 hrs by MTT assay; format: functional, cell-based; details: BGC-823, 72 h
[2] = tested on: HCT-8; assay: Cytotoxicity against human HCT8 cells after 72 hrs by MTT assay; format: functional, cell-based; details: HCT-8, 72 h
[3] = Cytotoxicity against human embryo lung fibroblast after 72 hrs by MTT assay; format: cell-based
[4] = tested on: KB; assay: Cytotoxicity against human KB cells after 72 hrs by MTT assay; format: functional, cell-based
[5] = Selectivity ratio of IC50 for human embryo lung fibroblast to IC50 for human KB cells; format: ADME, cell-based; details: human embryo lung fibroblasts and KB cells
[6] = tested on: A549; assay: Cytotoxicity against human A549 cells after 72 hrs by MTT assay; format: functional, cell-based; details: A549, 72 h

| SMILES | IC50 [1] [mg/L] | IC50 [2] [mg/L] | IC50 [3] [mg/L] | IC50 [4] [mg/L] | selectivity ratio [5] | IC50 [6] [mg/L] |
| --- | --- | --- | --- | --- | --- | --- |
| CCCCOC(=O)[C@H]1O[C@@H](O[C@H]2CC[C@@]3(C)C(CC[C@]4(C)[C@@H]3CC=C3[C@@H]5CC(C)(C)[C@@H](OC(=O)/C=C(\C)CCC=C(C)C)[C@H](OC(=O)C(C)CC)[C@]5(CO)[C@H](O)[C@H](O)[C@]34C)C2(C)C)[C@H](O[C@@H]2O[C@H](CO)[C@@H](O)[C@H](O)[C@H]2O)[C@@H](O)[C@@H]1O[C@@H]1O[C@@H](CO)[C@H](O)[C@H]1O (some centres not stated) | 7.29 (≈ 5.75 µM) | 2.86 (≈ 2.26 µM) | – | – | – | – |
| COC(=O)[C@H]1O[C@@H](O[C@H]2CC[C@@]3(C)C(CC[C@]4(C)[C@@H]3CC=C3[C@@H]5CC(C)(C)[C@@H](O)[C@H](O)[C@]5(CO)[C@H](O)[C@H](O)[C@]34C)C2(C)C)[C@H](O[C@@H]2O[C@H](CO)[C@@H](O)[C@H](O)[C@H]2O)[C@@H](O)[C@@H]1O[C@@H]1O[C@@H](CO)[C@H](O)[C@H]1O (some centres not stated) | – | 6.8 (≈ 6.86 µM) | > 10 | 0.3 (≈ 0.303 µM) | > 33 | 0.66 (≈ 0.666 µM) |
| CCCCOC(=O)[C@H]1O[C@@H](O[C@H]2CC[C@@]3(C)C(CC[C@]4(C)[C@@H]3CC=C3[C@@H]5CC(C)(C)C[C@H](OC(=O)/C=C(\C)CCC=C(C)C)[C@]5(CO)[C@H](O)[C@H](O)[C@]34C)C2(C)C)[C@H](O[C@@H]2O[C@H](CO)[C@@H](O)[C@H](O)[C@H]2O)[C@@H](O)[C@@H]1O[C@@H]1O[C@@H](CO)[C@H](O)[C@H]1O (some centres not stated) | – | 4.04 (≈ 3.46 µM) | – | – | – | – |
| CCC(C)C(=O)O[C@H]1[C@H](OC(=O)/C=C(\C)CCC=C(C)C)C(C)(C)C[C@H]2C3=CC[C@@H]4[C@@]5(C)CC[C@H](O[C@@H]6O[C@H](C(=O)OC)[C@@H](O[C@@H]7O[C@@H](CO)[C@H](O)[C@H]7O)[C@H](O)[C@H]6O[C@@H]6O[C@H](CO)[C@@H](O)[C@H](O)[C@H]6O)C(C)(C)C5CC[C@@]4(C)[C@]3(C)[C@@H](O)[C@@H](O)[C@]21CO (some centres not stated) [SYMPLOCOSOSIDE A] | – | 4.31 (≈ 3.52 µM) | 4.62 (≈ 3.77 µM) | 1.72 (≈ 1.4 µM) | – | 0.67 (≈ 0.547 µM) |

— ChEMBL document CHEMBL1148962, “Cytotoxic triterpenoid saponins from Symplocos chinensis” (J Nat Prod, 2004)
